Test results published in the NIST ThermoML archive (doi:10.1016/j.jct.2017.06.013).

Assay: xn = mol fraction of the nth substance listed
Conditions: Liquid, Vibrating tube method

CC(C)OC(C)C [diisopropyl ether] + CCCCCCO
mass density [kg/m3]
Conditions | x1 = 0.1524 | x1 = 0.3196 | x1 = 0.4906 | x1 = 0.6974 | x1 = 0.8457
293.15 K, 100 kPa | 806.7 | 792.1 | 776.3 | 756.4 | 741.2
293.15 K, 500 kPa | 806.9 | 792.3 | 776.7 | 756.8 | 741.7
293.15 K, 1000 kPa | 807.2 | 792.7 | 777.1 | 757.3 | 742.2
293.15 K, 2000 kPa | 807.9 | 793.5 | 777.9 | 758.3 | 743.3
293.15 K, 5000 kPa | 810 | 795.7 | 780.4 | 761.1 | 746.4
293.15 K, 10000 kPa | 813.4 | 799.5 | 784.5 | 765.7 | 751.4
293.15 K, 15000 kPa | 816.6 | 803 | 788.3 | 770 | 756.1
293.15 K, 20000 kPa | 819.7 | 806.4 | 792 | 774.1 | 760.5
293.15 K, 30000 kPa | 825.7 | 812.8 | 799 | 781.7 | 768.7
293.15 K, 40000 kPa | 831.2 | 818.6 | 805.3 | 788.6 | 776
293.15 K, 50000 kPa | 836.3 | 824.1 | 811.2 | 795 | 782.9
293.15 K, 60000 kPa | 841.3 | 829.4 | 816.8 | 801 | 789.3
293.15 K, 70000 kPa | 846.1 | 834.5 | 822.1 | 806.7 | 795.3
293.15 K, 80000 kPa | 850.4 | 839.1 | 827.1 | 812 | 800.8
293.15 K, 90000 kPa | 854.7 | 843.6 | 831.8 | 817.1 | 806.1
293.15 K, 100000 kPa | 858.8 | 848 | 836.3 | 822 | 811.2
293.15 K, 110000 kPa | 862.7 | 852 | 840.6 | 826.6 | 816
293.15 K, 120000 kPa | 866.5 | 856 | 844.8 | 830.9 | 820.5
293.15 K, 130000 kPa | 870.3 | 859.9 | 848.9 | 835.2 | 825
293.15 K, 140000 kPa | 873.7 | 863.5 | 852.6 | 839.2 | 829
313.15 K, 100 kPa | 791.5 | 776 | 759.1 | 737.8 | 721.4
313.15 K, 500 kPa | 791.8 | 776.3 | 759.5 | 738.2 | 721.9
313.15 K, 1000 kPa | 792.2 | 776.7 | 760 | 738.8 | 722.5
313.15 K, 2000 kPa | 793 | 777.6 | 761 | 739.9 | 723.8
313.15 K, 5000 kPa | 795.3 | 780.2 | 763.9 | 743.3 | 727.5
313.15 K, 10000 kPa | 799 | 784.3 | 768.4 | 748.4 | 733.2
313.15 K, 15000 kPa | 802.6 | 788.2 | 772.7 | 753.3 | 738.5
313.15 K, 20000 kPa | 806 | 791.9 | 776.8 | 757.8 | 743.4
313.15 K, 30000 kPa | 812.4 | 798.9 | 784.3 | 766.2 | 752.5
313.15 K, 40000 kPa | 818.5 | 805.4 | 791.4 | 773.9 | 760.8
313.15 K, 50000 kPa | 823.9 | 811.2 | 797.7 | 780.9 | 768.2
313.15 K, 60000 kPa | 829.3 | 817 | 803.8 | 787.5 | 775.1
313.15 K, 70000 kPa | 834.3 | 822.3 | 809.5 | 793.6 | 781.7
313.15 K, 80000 kPa | 839 | 827.3 | 814.7 | 799.3 | 787.7
313.15 K, 90000 kPa | 843.4 | 832 | 819.7 | 804.6 | 793.2
313.15 K, 100000 kPa | 847.8 | 836.6 | 824.6 | 809.8 | 798.7
313.15 K, 110000 kPa | 852 | 841 | 829.2 | 814.6 | 803.8
313.15 K, 120000 kPa | 855.9 | 845.2 | 833.6 | 819.3 | 808.7
313.15 K, 130000 kPa | 859.9 | 849.2 | 837.8 | 823.9 | 813.4
313.15 K, 140000 kPa | 863.6 | 853.2 | 841.9 | 828.2 | 817.9
333.15 K, 100 kPa | 775.6 | 759.2 | 741.1 | 718.3 | 700.6
333.15 K, 500 kPa | 776 | 759.6 | 741.6 | 718.8 | 701.3
333.15 K, 1000 kPa | 776.5 | 760.1 | 742.2 | 719.5 | 702.1
333.15 K, 2000 kPa | 777.4 | 761.1 | 743.3 | 720.8 | 703.6
333.15 K, 5000 kPa | 780 | 764 | 746.7 | 724.7 | 707.9
333.15 K, 10000 kPa | 784.2 | 768.7 | 751.8 | 730.6 | 714.5
333.15 K, 15000 kPa | 788.1 | 773 | 756.7 | 736.1 | 720.6
333.15 K, 20000 kPa | 791.8 | 777.1 | 761.2 | 741.3 | 726.2
333.15 K, 30000 kPa | 798.8 | 784.8 | 769.6 | 750.7 | 736.4
333.15 K, 40000 kPa | 805.4 | 791.9 | 777.3 | 759.3 | 745.6
333.15 K, 50000 kPa | 811.3 | 798.3 | 784.2 | 766.8 | 753.8
333.15 K, 60000 kPa | 817 | 804.4 | 790.7 | 773.8 | 761.2
333.15 K, 70000 kPa | 822.4 | 810.1 | 796.8 | 780.5 | 768.3
333.15 K, 80000 kPa | 827.3 | 815.4 | 802.4 | 786.6 | 774.7
333.15 K, 90000 kPa | 832.2 | 820.4 | 807.8 | 792.4 | 780.8
333.15 K, 100000 kPa | 836.8 | 825.3 | 813 | 797.9 | 786.7
333.15 K, 110000 kPa | 841.1 | 829.8 | 817.8 | 803 | 792
333.15 K, 120000 kPa | 845.5 | 834.4 | 822.6 | 808.1 | 797.4
333.15 K, 130000 kPa | 849.4 | 838.6 | 827 | 812.8 | 802.2
333.15 K, 140000 kPa | 853.4 | 842.8 | – | – | –
